# Experimental data taken from patent US10717746B2, “Chemical compounds” (ASTRAZENECA AB, priority 2015, dated 2020).
# Structures can show the parent of a compound that is named as a salt. Where two headings read alike, the source gives them in different places.
# Experiments:
# [1] = tested on: phosphorylation of RNA Polymerase II (RNAPII) at the Ser2 site in MCF7 cells; assay: MCF7 pSer2 RNAPII MOA assay (immunofluorescence); format: cell-based; conditions: 6-hr treatment, read-out: p-Ser 2 RNAPII (IC50)
# Procedure: MCF7 pSer2 RNAPII MOA Assay
# This is an immunofluorescence assay to determine the effect of CDK9 inhibitors on phosphorylation of RNA Polymerase II (RNAPII) at the Ser2 site in the breast cancer cell line, MCF7. On day one, 2500 MCF7 cells/well were seeded in 30 μl of growth media (RPMI+10% FBS+1% L-Glu+P/S) in 384-well black-wall clear-bottom plates, incubate plates overnight at 37° C. incubator. On the second day, the cells were treated with CDK9 inhibitors (7 point dose response ranging from 3 μM to 0.004 μM) using an ECHO liquid handler (Labcyte). After 6-hr treatment at 37° C. incubator, the cells were fixed with 30 µl/well 7.4% paraformaldehyde for 15 min at room temperature; the cells were washed twice with PBS, then permeabilized with 0.3% Triton X/PBS for 5 min at room temperature. After washing cells with PBS, the cells were incubated with 1:2000 diluted Anti-Ser2 Phospho-RNA pol II antibody (Covance MMS-129R) in 3% FBS/0.1% PBST overnight at 4° C. On the next day, the cells were washed twice with 0.1% PBST, then incubated with 1:1000 diluted Alexa Fluor 488 Goat-anti-mouse antibody (Life Technologies A-11001) and 1:4000 diluted DAPI at room temperature in dark. After one hour incubation, the cells were washed twice with 0.1% PBST, and once with PBS. The plates where sealed and read on an Acumen eX3 microplate cytometer (TTP Labtech) to assess phosphorylation level in each well.
# CDK9/CycT1 [2] = molecular target: T1, CDK9/CycT1 (Homo sapiens (Human), UniProt P50750); assay: CDK9 kinase assay, high ATP concentration (5 mM ATP); format: biochemical; conditions: 1.5 nM CDK9, read-out: CDK9 High ATP conc. (IC50)
# Procedure: (§1) Activity of CDK9 was determined in-vitro using a mobility shift assay on a Caliper LC3000 reader (Caliper/PerkinElmer), which measures fluorescence of a phosphorylated and unphosphorylated fluorescent peptide substrate and calculates a ratiometric value to determine percent turnover. Phosphorylation of the peptide in the presence and absence of the compound of interest was determined. Enzyme/substrate/adenosine triphosphate (ATP) mix (3 nM CDK9/CycT1, 6 μM ATP, 1.5 μM CDK9 peptide substrate (FITC-X-GSRTPMY-NH2 (X: epsilon aminocaproic acid)), 50 mM HEPES (pH7.2), 1 mM dithiothreitol, 0.01% tween 20, 50 μg/mL bovine serum albumin, (final assay concentration)) (5 μl) was preincubated with 2 μl of compound for 15 minutes at 25° C. Reactions were initiated with 5 μl of 24 mM MgCl2 (10 mM final assay concentration) in buffer (50 mM HEPES (pH7.2), 1 mM dithiothreitol, 0.01% tween 20, 50 μg/mL bovine serum albumin, (final assay concentration) and incubated at 25° C. for 90 minutes and reactions were stopped by addition of 5 μl of Stop mix consisting of 65 mM HEPES (pH7.2), 35.5 mM EDTA, 0.227% Coatin Reagent 3 (Caliper/PerkinElmer), and 0.003% Tween. Phosphorylated and unphosphorylated substrate was detected by a Caliper LC3000 reader (Caliper/PerkinElmer) in the presence of separation buffer consisting of 100 mM HEPES (pH7.2), 15.8 mM EDTA, 0.1% Coatin Reagent 3 (Caliper/PerkinElmer), 0.015% Brij-35, 5% DMSO, and 5.6 mM MgCl2. CDK9 enzyme was acquired from Carna Biosciences (Catalogue number 04-110), the CDK9 peptide substrate was acquired from Intonation (Boston, Mass.; Custom-made).
# High ATP assays were run the same way with the following modifications: the final assay concentration of CDK9 was 1.5 nM and the final assay concentration of ATP was 5 mM.
# CDK9/CycT1 [3] = molecular target: T1, CDK9/CycT1; assay: CDK9 kinase assay, ATP concentration at Km (mobility shift, Caliper LC3000); format: biochemical; conditions: 6 μM ATP, 3 nM CDK9/CycT1; read-out: CDK9 ATP conc. at Km (IC50)
# Procedure: as §1
# MV411 cells = assay: MV411 caspase activity assay (Caspase-Glo 3/7); format: cell-based; conditions: Homo sapiens, MV4-11, 6 h, 6-hr treatment, caspase 3/7 induction
# Procedure: MV411 Caspase Activity Assay
# This is a cell assay to measure the induction of caspase activity in the acute myeloid leukemia cell line, MV411 after 6-hr treatment with CDK9 inhibitors. On the first day, 3000 MV411 cells/well were seeded in 50 μl of growth media (IMDM+10% FBS+2% L-Glu+P/S) in 384-well white plates, incubate plates in 37° C. incubator overnight. […] After 6 hour incubation in 37° C. incubator, 25 μl of Caspase-Glo 3/7 reagent (Promega) per well was added into each well, and plates were incubated at room temperature for 30 min in dark. The plates were read on an Infinite M200 microplate reader (Tecan) with a 100 ms integration time.
# T1 sequence (P50750 whole entry): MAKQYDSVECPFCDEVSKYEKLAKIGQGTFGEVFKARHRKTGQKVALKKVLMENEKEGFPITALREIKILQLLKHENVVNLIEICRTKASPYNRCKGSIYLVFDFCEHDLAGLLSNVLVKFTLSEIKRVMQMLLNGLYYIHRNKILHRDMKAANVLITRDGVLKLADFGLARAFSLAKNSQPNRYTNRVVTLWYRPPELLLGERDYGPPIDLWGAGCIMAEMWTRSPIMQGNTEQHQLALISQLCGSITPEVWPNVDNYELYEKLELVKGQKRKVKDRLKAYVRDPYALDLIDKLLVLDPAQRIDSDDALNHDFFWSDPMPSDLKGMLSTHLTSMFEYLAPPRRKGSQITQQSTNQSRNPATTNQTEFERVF
# T1 sequence (O60563 whole entry partner): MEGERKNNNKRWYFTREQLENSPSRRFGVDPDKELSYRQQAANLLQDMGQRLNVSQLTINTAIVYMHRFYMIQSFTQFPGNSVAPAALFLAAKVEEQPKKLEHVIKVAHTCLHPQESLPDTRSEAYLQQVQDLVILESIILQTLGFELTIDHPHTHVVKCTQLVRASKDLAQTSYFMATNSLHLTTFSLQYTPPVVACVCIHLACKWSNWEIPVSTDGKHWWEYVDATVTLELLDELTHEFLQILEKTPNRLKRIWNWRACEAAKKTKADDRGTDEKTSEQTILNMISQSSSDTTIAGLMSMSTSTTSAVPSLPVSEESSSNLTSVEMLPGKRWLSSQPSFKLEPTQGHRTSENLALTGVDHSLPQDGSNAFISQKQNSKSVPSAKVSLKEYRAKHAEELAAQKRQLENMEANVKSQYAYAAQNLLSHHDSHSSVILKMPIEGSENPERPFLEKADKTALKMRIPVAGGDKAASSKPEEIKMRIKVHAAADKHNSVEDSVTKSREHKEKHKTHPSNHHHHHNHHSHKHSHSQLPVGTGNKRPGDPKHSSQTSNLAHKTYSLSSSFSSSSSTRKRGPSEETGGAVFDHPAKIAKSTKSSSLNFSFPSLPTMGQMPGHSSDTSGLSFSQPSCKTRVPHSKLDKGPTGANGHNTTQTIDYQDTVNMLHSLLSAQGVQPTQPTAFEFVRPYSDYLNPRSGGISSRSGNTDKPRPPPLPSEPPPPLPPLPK
SMILES,"IC50 ([1]; Homo sapiens, MCF7, 6 h)",IC50 (CDK9/CycT1 [2]),IC50 (CDK9/CycT1 [3]),IC50 (MV411 cells),IC50 [1]
"CC(=O)N[C@@H]1CCC[C@H](C(=O)Nc2cc(-c3cnn4c3CC(C)C4)c(Cl)cn2)C1 (single isomer, unassigned) [Example 41]",,27 nM,< 3 nM,,76 nM
"CC(=O)N[C@@H]1CCC[C@H](C(=O)Nc2cc(-c3cnn4c3CC(C)C4)c(Cl)cn2)C1 (single isomer, unassigned) [Example 42]",36 nM,26 nM,< 3 nM,92 nM,
"CC(=O)N[C@H]1CCC[C@H](C(=O)Nc2cc(-c3cnn4c3CC(C)(C)C4)c(Cl)cn2)C1 (single isomer, unassigned) [Example 59, trans-3-acetamido-N-(5-chloro-4-(5,5-dimethyl-5,6-dihydro-4H-pyrrolo[1,2-b]pyrazol-3-yl)pyridin-2-yl)cyclohexanecarboxamide]",,,,,> 2440 nM
"CC(=O)N[C@H]1CCC[C@H](C(=O)Nc2cc(-c3cnn4c3CCCC4)c(Cl)cn2)C1 (single isomer, unassigned) [Example 61, trans-3-acetamido-N-(5-chloro-4-(4,5,6,7-tetrahydropyrazolo[1,5-a]pyridin-3-yl)pyridin-2-yl)cyclohexanecarboxamide]",,,,,> 3000 nM
"CC(=O)N[C@@H]1CCC[C@H](C(=O)Nc2cc(-c3cnn4c3CC(C)CC4)c(Cl)cn2)C1 (single isomer, unassigned) [Example 65]",,< 4 nM,< 3 nM,,37 nM
"COC1CCc2c(-c3cc(NC(=O)[C@H]4CCC[C@@H](NC(C)=O)C4)ncc3Cl)cnn2C1 (single isomer, unassigned) [Example 70]",,20 nM,< 3 nM,,73 nM
"COC1CCc2c(-c3cc(NC(=O)[C@H]4CCC[C@@H](NC(C)=O)C4)ncc3Cl)cnn2C1 (single isomer, unassigned) [Example 71]",,1720 nM,16 nM,,> 2350 nM
"COC1CCn2ncc(-c3cc(NC(=O)[C@H]4CCC[C@@H](NC(C)=O)C4)ncc3Cl)c2C1 (single isomer, unassigned) [Example 73]",,39 nM,< 3 nM,,218 nM
"CC(=O)N[C@@H]1CCC[C@H](C(=O)Nc2cc(-c3cnn4c3C(O)C(C)(C)C4)c(Cl)cn2)C1 (single isomer, unassigned) [Example 79]",,< 3 nM,< 3 nM,,10 nM
"CC(=O)N[C@@H]1CCC[C@H](C(=O)Nc2cc(-c3cnn4c3C(O)C(C)(C)C4)c(Cl)cn2)C1 (single isomer, unassigned) [Example 80]",,135 nM,4 nM,,247 nM
"CC(=O)N[C@@H]1CCC[C@H](C(=O)Nc2cc(-c3cnn4c3CCCC4)c(Cl)cn2)C1 [Example 2, (1S,3R)-3-acetamido-N-(5-chloro-4-(4,5,6,7-tetrahydropyrazolo[1,5-a]pyridin-3-yl)pyridin-2-yl)cyclohexanecarboxamide]",130 nM,,,120 nM,
"CC(=O)N[C@@H]1CCC[C@H](C(=O)Nc2cc(-c3cnn4c3CC(C)(C)C4)c(C)cn2)C1 [Example 47, (1S,3R)-3-acetamido-N-(4-(5,5-dimethyl-5,6-dihydro-4H-pyrrolo[1,2-b]pyrazol-3-yl)-5-methylpyridin-2-yl)cyclohexanecarboxamide]",40 nM,,,74 nM,
"CC1(C)Cc2c(-c3cc(NC(=O)[C@H]4CCC[C@@H](NC(=O)CCO)C4)ncc3Cl)cnn2C1 [Example 52, (1S,3R)—N-(5-chloro-4-(5,5-dimethyl-5,6-dihydro-4H-pyrrolo[1,2-b]pyrazol-3-yl)pyridin-2-yl)-3-(3-hydroxypropanamido)cyclohexanecarboxamide]",,4 nM,< 3 nM,,

# More lines, now with the values ahead:
"IC50 ([1]; Homo sapiens, MCF7, 6 h)",IC50 (CDK9/CycT1 [2]),IC50 (CDK9/CycT1 [3]),IC50 (MV411 cells),IC50 [1],SMILES
> 1950 nM,2130 nM,28 nM,2520 nM,,"CC(=O)N[C@H]1CCC[C@H](C(=O)Nc2cc(-c3cnn4c3CC(C)(C)C4)c(F)cn2)C1 (relative stereo) [Example 84, (1S,3S)-3-acetamido-N-(4-(5,5-dimethyl-5,6-dihydro-4H-pyrrolo[1,2-b]pyrazol-3-yl)-5-fluoropyridin-2-yl)cyclohexane-1-carboxamide]"
,,,,333 nM,"CC(=O)N[C@H]1CCC[C@H](C(=O)Nc2cc(-c3cnn4c3CCCC4)c(Cl)cn2)C1 (single isomer, unassigned) [Example 62, trans-3-acetamido-N-(5-chloro-4-(4,5,6,7-tetrahydropyrazolo[1,5-a]pyridin-3-yl)pyridin-2-yl)cyclohexanecarboxamide]"
131 nM,53 nM,< 3 nM,,,"CC(=O)N[C@@H]1CCC[C@H](C(=O)Nc2cc(-c3cnn4c3CCC(C)C4)c(Cl)cn2)C1 (single isomer, unassigned) [Example 68]"
,246 nM,5 nM,,193 nM,"CC(=O)N[C@@H]1CCC[C@H](C(=O)Nc2cc(-c3cnn4c3CCC(C)C4)c(Cl)cn2)C1 (single isomer, unassigned) [Example 69]"
> 3000 nM,,,4090 nM,,"CC(=O)N[C@H]1CCC[C@@H](C(=O)Nc2cc(-c3cnn4c3CCCC4)c(Cl)cn2)C1 [Example 9, (1R,3S)-3-acetamido-N-(5-chloro-4-(4,5,6,7-tetrahydropyrazolo[1,5-a]pyridin-3-yl)pyridin-2-yl)cyclohexanecarboxamide]"
23 nM,,,14 nM,,"CC(=O)N[C@@H]1CCC[C@H](C(=O)Nc2cc(-c3cnn4c3CC(C)(C)C4)c(Cl)cn2)C1 [Example 14, (1S,3R)-3-acetamido-N-(5-chloro-4-(5,5-dimethyl-5,6-dihydro-4H-pyrrolo[1,2-b]pyrazol-3-yl)pyridin-2-yl)cyclohexanecarboxamide]"
36 nM,,,54 nM,,"CC(=O)N[C@@H]1CCC[C@H](C(=O)Nc2cc(-c3cnc4n3CC(C)(C)C4)c(Cl)cn2)C1 [Example 22, (1S,3R)-3-acetamido-N-(5-chloro-4-(6,6-dimethyl-6,7-dihydro-5H-pyrrolo[1,2-a]imidazol-3-yl)pyridin-2-yl)cyclohexanecarboxamide]"
1800 nM,2640 nM,36 nM,,,"N[C@@H]1CCC[C@H](C(=O)Nc2cc(-c3cnn4c3CCCC4)c(Cl)cn2)C1 [Example 31b, (1S,3R)-3-amino-N-(5-chloro-4-(4,5,6,7-tetrahydropyrazolo[1,5-a]pyridin-3-yl)pyridin-2-yl)cyclohexanecarboxamide dihydrochloride]"
307 nM,,,416 nM,,"CC(=O)N[C@H]1CCC[C@@H](C(=O)Nc2cc(-c3cnn4c3CC(C)(C)C4)c(Cl)cn2)C1 [Example 43, (1R,3S)-3-acetamido-N-(5-chloro-4-(5,5-dimethyl-5,6-dihydro-4H-pyrrolo[1,2-b]pyrazol-3-yl)pyridin-2-yl)cyclohexanecarboxamide]"
